Experimental data taken from US9650379B2 (CHONG KUN DANG PHARMACEUTICAL CORP., priority 2013, dated 2017).

Experiments:
HDAC1 = target: T1, HDAC1 (Homo sapiens, UniProt Q13547); experiment: Inhibition of HDAC1 activity (HDAC1 fluorimetric drug discovery assay kit); type: biochemical; details: test concentrations 100, 1000 and 10000 nM; 37° C., 60 minutes
T1 construct: purchased Enzolifesciences BML-AK511
Protocol: (§1) Assays were performed using a HDAC1 fluorimetric drug discovery assay kit (Enzolifesciences: BML-AK511) and a HDAC6 human recombinant (Calbiochem: 382180). The assay mixture of the kit was treated with a test compound at concentrations of 100, 1000 and 10000 nM for HDAC1 assay and concentrations of 0.1, 1, 10, 100 and 1000 nM for HDAC6 assay. The treated assay mixture was allowed to react at 37° C. for 60 minutes, and then was treated with a developer and allowed to stand at 37° C. for 30 minutes, followed by quantification of the fluorescence.

HDAC6 human recombinant = target: T2, HDAC6 human recombinant (Homo sapiens, UniProt Q9UBN7); experiment: Inhibition of HDAC6 activity (fluorimetric assay); type: biochemical; details: test concentrations 0.1, 1, 10, 100 and 1000 nM; 37° C., 60 minutes
T2 construct: purchased Calbiochem 382180
T2 sequence (Q9UBN7 1-1215): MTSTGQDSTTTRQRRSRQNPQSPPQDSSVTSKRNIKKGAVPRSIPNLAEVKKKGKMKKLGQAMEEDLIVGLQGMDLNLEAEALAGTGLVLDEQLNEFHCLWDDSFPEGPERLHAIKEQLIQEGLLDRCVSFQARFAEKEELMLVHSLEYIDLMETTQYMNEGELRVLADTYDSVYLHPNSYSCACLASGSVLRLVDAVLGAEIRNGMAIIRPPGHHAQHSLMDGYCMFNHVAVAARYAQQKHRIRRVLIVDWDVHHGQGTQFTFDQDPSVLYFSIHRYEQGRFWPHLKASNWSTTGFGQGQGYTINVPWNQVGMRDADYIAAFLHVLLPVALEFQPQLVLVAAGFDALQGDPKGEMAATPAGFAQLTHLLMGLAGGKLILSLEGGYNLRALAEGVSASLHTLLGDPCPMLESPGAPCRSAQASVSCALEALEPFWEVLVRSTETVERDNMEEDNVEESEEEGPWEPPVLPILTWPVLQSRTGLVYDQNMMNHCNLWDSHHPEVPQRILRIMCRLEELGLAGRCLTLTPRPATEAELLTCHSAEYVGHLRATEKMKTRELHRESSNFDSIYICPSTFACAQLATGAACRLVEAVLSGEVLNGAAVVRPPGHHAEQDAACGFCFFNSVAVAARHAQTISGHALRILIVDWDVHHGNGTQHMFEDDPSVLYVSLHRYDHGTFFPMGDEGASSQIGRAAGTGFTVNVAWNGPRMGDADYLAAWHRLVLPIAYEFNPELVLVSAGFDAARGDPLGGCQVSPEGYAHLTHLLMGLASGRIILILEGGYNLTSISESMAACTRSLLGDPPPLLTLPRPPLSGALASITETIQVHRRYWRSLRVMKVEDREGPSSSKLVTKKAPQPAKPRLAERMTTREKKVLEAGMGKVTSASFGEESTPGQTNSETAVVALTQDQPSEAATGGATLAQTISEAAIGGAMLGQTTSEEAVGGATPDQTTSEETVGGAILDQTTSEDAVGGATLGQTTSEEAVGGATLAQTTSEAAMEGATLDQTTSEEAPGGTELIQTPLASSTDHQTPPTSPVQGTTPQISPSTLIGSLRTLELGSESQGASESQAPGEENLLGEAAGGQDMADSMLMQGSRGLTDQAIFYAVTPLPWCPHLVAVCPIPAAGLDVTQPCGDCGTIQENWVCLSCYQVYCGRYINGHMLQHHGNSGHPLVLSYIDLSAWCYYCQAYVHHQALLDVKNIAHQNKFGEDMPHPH
Protocol: as §1

T1 sequence (Q13547 whole entry): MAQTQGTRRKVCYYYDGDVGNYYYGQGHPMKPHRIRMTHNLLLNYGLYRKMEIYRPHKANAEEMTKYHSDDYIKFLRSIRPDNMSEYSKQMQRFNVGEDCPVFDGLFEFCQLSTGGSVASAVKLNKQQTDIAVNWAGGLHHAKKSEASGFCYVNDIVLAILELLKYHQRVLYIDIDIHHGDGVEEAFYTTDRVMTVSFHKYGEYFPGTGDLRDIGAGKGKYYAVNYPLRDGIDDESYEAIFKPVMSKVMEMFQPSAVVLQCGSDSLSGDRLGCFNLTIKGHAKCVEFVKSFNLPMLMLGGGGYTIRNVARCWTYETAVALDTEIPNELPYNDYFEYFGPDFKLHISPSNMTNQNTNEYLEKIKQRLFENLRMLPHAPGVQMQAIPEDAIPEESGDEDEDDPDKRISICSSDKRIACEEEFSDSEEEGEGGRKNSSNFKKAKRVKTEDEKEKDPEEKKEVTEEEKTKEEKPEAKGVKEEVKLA

Structure (SMILES)	IC50 (HDAC1) [nM]	IC50 (HDAC6 human recombinant) [nM]
CC(C)(C)OC(=O)N1CCC(F)(CN2CCN(c3ccnc4c3ccn4Cc3ccc(C(=O)NO)cc3)CC2)CC1 [Compound 760, tert-butyl 4-fluoro-4-((4-(1-(4-(hydroxycarbamoyl)benzyl)-1H-pyrrolo[2,3-b]pyridin-4-yl)piperazin-1-yl)methyl)piperidine-1-carboxylate]	3210	37
O=C(NO)c1ccc(Cn2ccc3c(-c4ccc(CN5CCOCC5)cc4)ccnc32)cc1 [Compound 762, N-hydroxy-4-((4-(4-(morpholinomethyl)phenyl)-1H-pyrrolo[2,3-b]pyridin-1-yl)methyl)benzamide]	780	10
CC(C)(F)CN1CCN(Cc2ccc(-c3ccnc4c3ccn4Cc3ccc(C(=O)NO)cc3)cc2)CC1 [Compound 763, 4-((4-(4-((4-(2-fluoro-2-methylpropyl)piperazin-1-yl)methyl)phenyl)-1H-pyrrolo[2,3-b]pyridin-1-yl)methyl)-N-hydroxybenzamide]	4200	300
CCC(F)(CC)CN1CCN(c2ccnc3c2ccn3Cc2ccc(C(=O)NO)cc2)CC1 [Compound 764, 4-((4-(4-(2-ethyl-2-fluorobutyl)piperazin-1-yl)-1H-pyrrolo[2,3-b]pyridin-1-yl)methyl)-N-hydroxybenzamide]	3220	91
CC(C)(C)OC(=O)N1CC=C(c2cc3c(ccn3Cc3ccc(C(=O)NO)cc3)cn2)CC1 [Compound 783, tert-butyl 4-(1-(4-(hydroxycarbamoyl)benzyl)-1H-pyrrolo[3,2-c]pyridin-6-yl)-5,6-dihydropyridine-1(2H)-carboxylate]	450	12
CC(C)(C)OC(=O)N1CC=C(c2ccnc3c2ccn3Cc2ccc(C(=O)NO)cc2)CC1 [Compound 784]	930	16
CC(C)(C)OC(=O)N1CC=C(c2cnc3ccn(Cc4ccc(C(=O)NO)cc4)c3c2)CC1 [Compound 786, tert-butyl 4-(1-(4-(hydroxycarbamoyl)benzyl)-1H-pyrrolo[3,2-b]pyridin-6-yl)-5,6-dihydropyridine-1(2H)-carboxylate]	620	5.7
O=C(NO)c1ccc(Cn2ccc3cc(N4CCOCC4)cnc32)cc1 [Compound 787, N-hydroxy-4-((5-morpholino-1H-pyrrolo[2,3-b]pyridin-1-yl)methyl)benzamide]	2780	24.9
CC1CN(c2cnc3c(ccn3Cc3ccc(C(=O)NO)cc3)c2)CC(C)O1 (centres unmarked) [Compound 807, 4-((5-(2,6-dimethylmorpholino)-1H-pyrrolo[2,3-b]pyridin-1-yl)methyl)-N-hydroxybenzamide]	390	10.4
CC(C)(C)OC(=O)NC1CCN(c2cnc3c(ccn3Cc3ccc(C(=O)NO)cc3)c2)CC1 [Compound 809, tert-butyl (1-(1-(4-(hydroxycarbamoyl)benzyl)-1H-pyrrolo[2,3-b]pyridin-5-yl)piperidin-4-yl)carbamate]	3720	30
CC(C)(O)CN1CCC(c2ccnc3c2ccn3Cc2ccc(C(=O)NO)cc2)CC1 [Compound 812, N-hydroxy-4-((4-(1-(2-hydroxy-2-methylpropyl)piperidin-4-yl)-1H-pyrrolo[2,3-b]pyridin-1-yl)methyl)benzamide]	150	5

Now from value to molecule:

IC50 (HDAC1) [nM]	IC50 (HDAC6 human recombinant) [nM]	Structure (SMILES)
430	9	O=C(NO)c1ccc(Cn2ccc3c(-c4cccc(CN5CCOCC5)c4)ccnc32)cc1 [Compound 761, N-hydroxy-4-((4-(3-(morpholinomethyl)phenyl)-1H-pyrrolo[2,3-b]pyridin-1-yl)methyl)benzamide]
2440	18	O=C(NO)c1ccc(Cn2ccc3cc(C4CCN(Cc5cccc(F)c5)CC4)cnc32)cc1 [Compound 781, 4-((5-(1-(3-fluorobenzyl)piperidin-4-yl)-1H-pyrrolo[2,3-b]pyridin-1-yl)methyl)-N-hydroxybenzamide]
570	3.8	CN1CCN(Cc2cccc(-c3ccnc4c3ccn4Cc3ccc(C(=O)NO)cc3)c2)CC1 [Compound 799, N-hydroxy-4-((4-(3-((4-methylpiperazin-1-yl)methyl)phenyl)-1H-pyrrolo[2,3-b]pyridin-1-yl)methyl)benzamide]
1980	58	O=C(NO)c1ccc(Cn2ccc3cc(C4CCN(Cc5ccccc5)CC4)cnc32)cc1 [Compound 804, 4-((5-(1-benzylpiperidin-4-yl)-1H-pyrrolo[2,3-b]pyridin-1-yl)methyl)-N-hydroxybenzamide]
1610	38	CC1CCN(c2cnc3c(ccn3Cc3ccc(C(=O)NO)cc3)c2)CC1 [Compound 805, N-hydroxy-4-((5-(4-methylpiperidin-1-yl)-1H-pyrrolo[2,3-b]pyridin-1-yl)methyl)benzamide]
680	6.7	O=C(NO)c1ccc(Cn2ccc3cc(N4CCN(Cc5ccccc5)CC4)cnc32)cc1 [Compound 806, 4-((5-(4-benzylpiperazin-1-yl)-1H-pyrrolo[2,3-b]pyridin-1-yl)methyl)-N-hydroxybenzamide]
1920	13	COc1ccc(CN2CCC(c3cnc4c(ccn4Cc4ccc(C(=O)NO)cc4)c3)CC2)cc1 [Compound 830, N-hydroxy-4-((5-(1-(4-methoxybenzyl)piperidin-4-yl)-1H-pyrrolo[2,3-b]pyridin-1-yl)methyl)benzamide]
1220	7	O=C(NO)c1ccc(Cn2ccc3cc(C4CCN(C(=O)c5cccc(F)c5)CC4)cnc32)cc1 [Compound 831, 4-((5-(1-(3-fluorobenzoyl)piperidin-4-yl)-1H-pyrrolo[2,3-b]pyridin-1-yl)methyl)-N-hydroxybenzamide]
1910	17.5	O=C(NO)c1ccc(Cn2ccc3cc(C4CCN(Cc5ccccc5F)CC4)cnc32)cc1 [Compound 839, 4-((5-(1-(2-fluorobenzyl)piperidin-4-yl)-1H-pyrrolo[2,3-b]pyridin-1-yl)methyl)-N-hydroxybenzamide]
610	4.1	O=C(NO)c1ccc(Cn2ccc3cc(C4CCN(Cc5cccnc5)CC4)cnc32)cc1 [Compound 840, N-hydroxy-4-((5-(1-(pyridin-3-ylmethyl)piperidin-4-yl)-1H-pyrrolo[2,3-b]pyridin-1-yl)methyl)benzamide]
540	6.9	O=C(NO)c1ccc(Cn2ccc3cc(C4CCN(Cc5ccncc5)CC4)cnc32)cc1 [Compound 841, N-hydroxy-4-((5-(1-(pyridin-4-ylmethyl)piperidin-4-yl)-1H-pyrrolo[2,3-b]pyridin-1-yl)methyl)benzamide]
1790	14	COc1cccc(CN2CCC(c3cnc4c(ccn4Cc4ccc(C(=O)NO)cc4)c3)CC2)c1 [Compound 842, N-hydroxy-4-((5-(1-(3-methoxybenzyl)piperidin-4-yl)-1H-pyrrolo[2,3-b]pyridin-1-yl)methyl)benzamide]
770	14	O=C(NO)c1ccc(Cn2ccc3cc(C4CCN(Cc5ccc(F)cc5)CC4)cnc32)cc1 [Compound 843, 4-((5-(1-(4-fluorobenzyl)piperidin-4-yl)-1H-pyrrolo[2,3-b]pyridin-1-yl)methyl)-N-hydroxybenzamide]
550	3.4	O=C(NO)c1ccc(Cn2ccc3cc(C4CCN(Cc5ccccn5)CC4)cnc32)cc1 [Compound 844]
